Test results taken from publication PMC4783402 (Frontiers in Microbiology, 2016).

Columns and labels:
in vitro = conditions: human
L. pneumophila biofilm [1] = format: cell-based, Legionella pneumophila 155; conditions: 0.1 mM polyamino-phenolic ligand, 3-day-old biofilm treated 3 days, tap water, 37°C
[2] = tested on: L. pneumophila/E. coli biofilm; format: cell-based, Legionella pneumophila 155 / Escherichia coli; conditions: 0.1 mM polyamino-phenolic ligand, 3-day-old biofilm treated 3 days
L. pneumophila biofilm [3] = format: cell-based, Legionella pneumophila 155; conditions: 0.1 mM polyamino-phenolic ligand added at inoculum, 3-day contact time
[4] = tested on: L. pneumophila/A. hydrophila biofilm; format: cell-based, Legionella pneumophila 155 / Aeromonas hydrophila; conditions: 0.1 mM polyamino-phenolic ligand added at inoculum, 3-day contact time
[5] = tested on: L. pneumophila/E. coli biofilm; format: cell-based, Legionella pneumophila 155 / Escherichia coli; conditions: 0.1 mM polyamino-phenolic ligand added at inoculum, 3-day contact time
planktonic A. hydrophila = format: cell-based, Aeromonas hydrophila
planktonic E. coli = format: cell-based, Escherichia coli
[6] = tested on: planktonic L. pneumophila; format: cell-based, Legionella pneumophila; conditions: 0.1 mM polyamino-phenolic ligand, 24 h, PBS, 37°C
planktonic P. aeruginosa = format: cell-based, Pseudomonas aeruginosa
planktonic K. pneumoniae = format: cell-based, Klebsiella pneumoniae
[7] = tested on: L. pneumophila/A. hydrophila biofilm; format: cell-based, Legionella pneumophila 155 / Aeromonas hydrophila; conditions: 0.1 mM polyamino-phenolic ligand, 3-day-old biofilm treated 3 days
[8] = tested on: L. pneumophila/K. pneumonia biofilm; format: cell-based, Legionella pneumophila 155 / Klebsiella pneumoniae; conditions: 0.1 mM polyamino-phenolic ligand, 3-day-old biofilm treated 3 days
[9] = tested on: L. pneumophila/P. aeruginosa biofilm; format: cell-based, Legionella pneumophila 155 / Pseudomonas aeruginosa; conditions: 0.1 mM polyamino-phenolic ligand added at inoculum, 3-day contact time
[10] = tested on: L. pneumophila/K. pneumoniae biofilm; format: cell-based, Legionella pneumophila 155 / Klebsiella pneumoniae; conditions: 0.1 mM polyamino-phenolic ligand added at inoculum, 3-day contact time
[11] = tested on: five-species biofilm (L. pneumophila/P. aeruginosa/A. hydrophila/E. coli/K. pneumoniae); format: cell-based; conditions: 0.1 mM polyamino-phenolic ligand added at inoculum, 3-day contact time

Compound | viability (in vitro) [%] | biofilm reduction (degradation) (L. pneumophila biofilm [1]) [%] | effect on number of viable planktonic cells (planktonic A. hydrophila) | effect on number of viable planktonic cells (planktonic E. coli) | effect on number of viable planktonic cells [6] | effect on number of viable planktonic cells (planktonic P. aeruginosa) | effect on number of viable planktonic cells (planktonic K. pneumoniae) | further results
NCCN(CCN)Cc1cccc(-c2cccc(CN(CCN)CCN)c2O)c1O [Bfden, 3,3′-bis(N,N-bis(2-aminoethyl)aminomethyl)-2,2′-dihydroxybiphenyl] | 97 | – | – | – | – | – | – | –
NCCNCCNCc1cc(-c2ccc(O)c(CNCCNCCN)c2)ccc1O [Bisom, 3,3′-bis(N-(N-(2-aminoethyl)-2-aminoethyl)aminomethyl)-4,4′-dihydroxybiphenyl] | 72 | – | – | – | – | – | – | –
NCCN(CCN)Cc1cc(-c2ccc(O)c(CN(CCN)CCN)c2)ccc1O [Dimo, 3,3′-bis(N,N-bis(2-aminoethyl)aminomethyl)-4,4′-dihydroxybiphenyl] | 58 | 27 | – | – | – | – | – | –
Oc1c2cccc1CNCCN(CCNCCCNCCNCCCNCCN1CCNCc3cccc(c3O)CNCC1)CCNC2 [Double Macrophen, 1,16-bis(3,6,9-triaza-15-hydroxybicyclo(9.3.1)pentadeca-11,13,1^15-trien-6-yl)-3,7,10,14-tetraazahexadecane] | 95 | 32 | did not reduce the number of viable cells | did not reduce the number of viable cells | did not reduce the number of viable cells | did not reduce the number of viable cells | did not reduce the number of viable cells | biofilm reduction (degradation) [2]: 39%; biofilm formation inhibition (L. pneumophila biofilm [3]): 48%; biofilm formation inhibition [4]: 34%; biofilm formation inhibition [5]: 42%
NCCN1CCNCc2cccc(c2O)CNCC1 [Macrophen, 2-(3,6,9-triaza-15-hydroxybicyclo(9.3.1)pentadeca-11,13,1^15-trien-6-yl)ethylamine] | – | 27 | did not reduce the number of viable cells | did not reduce the number of viable cells | did not reduce the number of viable cells | did not reduce the number of viable cells | did not reduce the number of viable cells | biofilm reduction (degradation) [7]: 33%; biofilm reduction (degradation) [8]: 33%; biofilm formation inhibition [9]: 26%; biofilm formation inhibition [10]: 24%; biofilm formation inhibition [11]: 27%
